The text below walks through data of patent US20230183243A1, “HETEROARYL DERIVATIVES AND PHARMACEUTICAL COMPOSITION COMPRISING SAME AS ACTIVE INGREDIENT” (VORONOI INC., priority 2019, published 2023).

What is called GI50 is the concentration at which growth is held to half of that of the control.

Bounds are passed on as bounds.

In one assay the test system is MDA-MB-231 cells. As to the kind of experiment: Inhibition of proliferation of triple-negative breast cancer cells, CellTiter-Glo. It counts as cell-based. The note with it: Homo sapiens, 120 h; MDA-MB-231, cultured for 5 days. In short, it runs like this: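 MDA-MB-231 cells pre-cultured 24 h (5% CO2, 37 °C), then exposed to compound for 5 days at 12 three-fold dilutions, final 10 μM to 0.05 nM. Viability read by CellTiter-Glo luminescence after 10 min at 37 °C; growth inhibition calculated relative to untreated solvent-control cells.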
Background: Cellular ATP, detected with luciferase, serves as a proxy for viable cell number.

Assay [1] has as its target T1, ABL1(F317L)-nonphosphorylated (Homo sapiens, UniProt P00519, F317L).
T1 construct: purchased DiscoverX Corp. (ScanMAX Kinase panel, commissioned)
As to the kind of experiment: ScanMAX Kinase panel (DiscoverX). The format is binding. The note with it: read-out: % Cont @ 1 μM. The procedure:
(§1) Specifically, the enzyme (kinase) selectivity of the compound of Example 7 selected from the Example compounds of the present invention was measured by commissioning DiscoverX Corp., and an experiment was performed using a panel for ScanMAX™ Kinase analysis.
(§2) In this case, the concentration of a drug treated with the enzyme was set at 1 μM in DMSO, and percent control (% control) was defined in the same manner as in the following Expression 1.
(§3) (Example compound−Positive control)/(Negative control−Positive control)×100 [Expression 1]
(§4) Wherein the positive control represents a compound having a percent control of 0%, and the negative control represents a compound having a percent control of 100% in DMSO. For the enzyme selectivity of the present invention, the compound was also judged to have activity against the corresponding enzyme when the percent control for each of the enzymes was <30% (i.e., less than 30%).
(§5) Further, to evaluate the inhibitory activity of the compound according to the present invention against more enzymes, an experiment was performed as follows. Specifically, the enzyme (kinase) selectivity of the compound of Example 64 selected from the Example compounds of the present invention was measured by commissioning DiscoverX Corp., and an experiment was performed using a panel for ScanMAX™ Kinase analysis. In this case, the concentration of a drug treated with the enzyme was set at 1 μM in DMSO, and the percent control (% control) were defined in the same manner as in the following Expression 1.
(§6) Wherein the positive control represents a compound having a percent control of 0%, and the negative control represents a compound having a percent control of 100% in DMSO. For the enzyme selectivity of the present invention, the compound was also judged to have activity against the corresponding enzyme when the percent control for each of the enzymes was <35% (i.e., less than 35%).

Another assay concerns the target T2, GRK4 (Homo sapiens, UniProt P32298).
T2 construct: purchased DiscoverX Corp. (ScanMAX Kinase panel, commissioned)
Put plainly: ScanMAX Kinase panel (DiscoverX). The note with it: read-out: % Cont @ 1 μM. The format is binding. The procedure: as §1, §2, §3, §4, §5, §6

Another assay deals with T3, JNK1 (Homo sapiens, UniProt P45983).
T3 construct: purchased DiscoverX Corp. (ScanMAX Kinase panel, commissioned)
T3 sequence (P45983 whole entry): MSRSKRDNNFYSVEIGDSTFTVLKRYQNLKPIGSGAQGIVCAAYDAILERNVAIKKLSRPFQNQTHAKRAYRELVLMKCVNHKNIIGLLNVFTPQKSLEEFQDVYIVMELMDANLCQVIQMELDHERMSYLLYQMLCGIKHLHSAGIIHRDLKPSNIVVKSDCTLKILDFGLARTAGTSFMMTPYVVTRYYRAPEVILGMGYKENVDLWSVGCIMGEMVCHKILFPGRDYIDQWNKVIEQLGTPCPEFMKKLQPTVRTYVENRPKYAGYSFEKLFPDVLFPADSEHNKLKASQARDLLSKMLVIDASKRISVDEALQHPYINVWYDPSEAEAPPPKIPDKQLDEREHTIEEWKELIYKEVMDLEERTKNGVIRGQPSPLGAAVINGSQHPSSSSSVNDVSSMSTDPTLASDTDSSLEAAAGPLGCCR
As to the kind of experiment: ScanMAX Kinase panel (DiscoverX). The format is binding. The protocol:
as §1, §2, §3, §4, §5, §6

The target in another assay is T4, JNK2 (Homo sapiens, UniProt P45984).
T4 construct: purchased DiscoverX Corp. (ScanMAX Kinase panel, commissioned)
T4 sequence (P45984 whole entry): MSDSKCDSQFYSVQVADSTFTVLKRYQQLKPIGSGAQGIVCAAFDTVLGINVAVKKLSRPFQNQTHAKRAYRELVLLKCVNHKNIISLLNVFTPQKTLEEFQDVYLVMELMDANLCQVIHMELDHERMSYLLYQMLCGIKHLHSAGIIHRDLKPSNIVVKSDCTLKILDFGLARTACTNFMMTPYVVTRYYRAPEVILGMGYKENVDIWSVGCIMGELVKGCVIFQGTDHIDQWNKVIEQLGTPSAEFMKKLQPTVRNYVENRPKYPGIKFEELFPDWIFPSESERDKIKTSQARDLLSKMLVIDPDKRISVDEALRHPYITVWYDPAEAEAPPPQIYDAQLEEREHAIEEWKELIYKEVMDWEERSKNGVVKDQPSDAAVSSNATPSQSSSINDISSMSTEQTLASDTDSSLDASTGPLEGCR
Put plainly: ScanMAX Kinase panel (DiscoverX). The format is binding. The protocol:
as §1, §2, §3, §4, §5, §6

Another assay deals with T5, JNK3 (Homo sapiens, UniProt P53779).
T5 construct: purchased DiscoverX Corp. (ScanMAX Kinase panel, commissioned)
T5 sequence (P53779 whole entry): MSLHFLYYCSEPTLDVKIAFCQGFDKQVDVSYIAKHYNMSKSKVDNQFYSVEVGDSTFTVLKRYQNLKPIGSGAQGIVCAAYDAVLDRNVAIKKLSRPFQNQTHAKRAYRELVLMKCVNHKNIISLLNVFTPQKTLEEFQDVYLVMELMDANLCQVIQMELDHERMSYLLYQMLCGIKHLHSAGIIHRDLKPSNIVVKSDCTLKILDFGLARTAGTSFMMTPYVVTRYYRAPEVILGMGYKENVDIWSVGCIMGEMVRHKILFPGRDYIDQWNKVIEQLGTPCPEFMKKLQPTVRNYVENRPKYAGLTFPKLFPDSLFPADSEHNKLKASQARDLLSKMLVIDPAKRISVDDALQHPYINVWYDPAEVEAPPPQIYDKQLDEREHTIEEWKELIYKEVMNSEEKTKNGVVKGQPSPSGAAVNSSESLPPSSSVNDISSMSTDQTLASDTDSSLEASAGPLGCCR
As to the kind of experiment: ScanMAX Kinase panel (DiscoverX). It counts as binding. The protocol: as §1, §2, §3, §4, §5, §6

The target in the next assay is T6, LRRK2(G2019S) (Homo sapiens, UniProt Q5S007, G2019S).
T6 construct: purchased DiscoverX Corp. (ScanMAX Kinase panel, commissioned)
Put plainly: ScanMAX Kinase panel (DiscoverX). The note with it: read-out: % Cont @ 1 μM. The format is binding. The procedure:
as §1, §2, §3, §4, §5, §6

For a further assay, the target named is T7, MAPKAPK2 (Homo sapiens, UniProt P49137).
T7 construct: purchased DiscoverX Corp. (ScanMAX Kinase panel, commissioned)
T7 sequence (P49137 whole entry): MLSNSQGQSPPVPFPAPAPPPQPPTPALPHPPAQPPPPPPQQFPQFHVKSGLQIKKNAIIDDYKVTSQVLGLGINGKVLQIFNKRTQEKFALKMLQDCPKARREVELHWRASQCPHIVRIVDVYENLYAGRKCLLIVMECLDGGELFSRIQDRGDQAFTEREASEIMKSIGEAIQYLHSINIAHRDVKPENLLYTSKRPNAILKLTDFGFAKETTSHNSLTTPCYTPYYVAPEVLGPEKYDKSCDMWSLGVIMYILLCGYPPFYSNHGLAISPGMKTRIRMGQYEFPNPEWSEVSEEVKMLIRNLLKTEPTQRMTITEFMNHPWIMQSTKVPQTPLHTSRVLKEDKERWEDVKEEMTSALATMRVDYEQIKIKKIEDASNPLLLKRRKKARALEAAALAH
As to the kind of experiment: ScanMAX Kinase panel (DiscoverX). It counts as binding. The note with it: read-out: % Cont @ 1 μM. The procedure:
as §1, §2, §3, §4, §5, §6

The next assay has as its target T8, RIPK5 (Homo sapiens, UniProt Q6XUX3).
T8 construct: purchased DiscoverX Corp. (ScanMAX Kinase panel, commissioned)
Put plainly: ScanMAX Kinase panel (DiscoverX). The format is binding. The note with it: read-out: % Cont @ 1 μM. The protocol:
as §1, §2, §3, §4, §5, §6

For the next assay, the target named is T9, SRPK3 (Homo sapiens, UniProt Q9UPE1).
T9 construct: purchased DiscoverX Corp. (ScanMAX Kinase panel, commissioned)
T9 sequence (Q9UPE1 whole entry): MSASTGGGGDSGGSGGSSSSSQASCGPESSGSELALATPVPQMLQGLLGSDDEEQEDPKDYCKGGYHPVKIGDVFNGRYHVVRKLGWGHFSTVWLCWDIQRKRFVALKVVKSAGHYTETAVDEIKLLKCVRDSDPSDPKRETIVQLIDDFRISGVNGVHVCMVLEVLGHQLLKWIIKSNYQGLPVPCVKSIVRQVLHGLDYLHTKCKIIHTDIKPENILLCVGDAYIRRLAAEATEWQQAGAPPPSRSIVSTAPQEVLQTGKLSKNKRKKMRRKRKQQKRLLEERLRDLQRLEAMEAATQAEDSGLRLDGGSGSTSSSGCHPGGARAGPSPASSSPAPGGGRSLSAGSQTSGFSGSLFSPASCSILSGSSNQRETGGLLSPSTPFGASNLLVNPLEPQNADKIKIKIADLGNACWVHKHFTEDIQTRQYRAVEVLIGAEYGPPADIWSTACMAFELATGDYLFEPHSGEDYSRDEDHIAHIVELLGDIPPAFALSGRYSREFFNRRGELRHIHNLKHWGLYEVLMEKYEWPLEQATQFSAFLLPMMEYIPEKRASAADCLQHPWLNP
As to the kind of experiment: ScanMAX Kinase panel (DiscoverX). The note with it: read-out: % Cont @ 1 μM. The format is binding. The protocol: as §1, §2, §3, §4, §5, §6

T1 sequence (P00519 whole entry F317L): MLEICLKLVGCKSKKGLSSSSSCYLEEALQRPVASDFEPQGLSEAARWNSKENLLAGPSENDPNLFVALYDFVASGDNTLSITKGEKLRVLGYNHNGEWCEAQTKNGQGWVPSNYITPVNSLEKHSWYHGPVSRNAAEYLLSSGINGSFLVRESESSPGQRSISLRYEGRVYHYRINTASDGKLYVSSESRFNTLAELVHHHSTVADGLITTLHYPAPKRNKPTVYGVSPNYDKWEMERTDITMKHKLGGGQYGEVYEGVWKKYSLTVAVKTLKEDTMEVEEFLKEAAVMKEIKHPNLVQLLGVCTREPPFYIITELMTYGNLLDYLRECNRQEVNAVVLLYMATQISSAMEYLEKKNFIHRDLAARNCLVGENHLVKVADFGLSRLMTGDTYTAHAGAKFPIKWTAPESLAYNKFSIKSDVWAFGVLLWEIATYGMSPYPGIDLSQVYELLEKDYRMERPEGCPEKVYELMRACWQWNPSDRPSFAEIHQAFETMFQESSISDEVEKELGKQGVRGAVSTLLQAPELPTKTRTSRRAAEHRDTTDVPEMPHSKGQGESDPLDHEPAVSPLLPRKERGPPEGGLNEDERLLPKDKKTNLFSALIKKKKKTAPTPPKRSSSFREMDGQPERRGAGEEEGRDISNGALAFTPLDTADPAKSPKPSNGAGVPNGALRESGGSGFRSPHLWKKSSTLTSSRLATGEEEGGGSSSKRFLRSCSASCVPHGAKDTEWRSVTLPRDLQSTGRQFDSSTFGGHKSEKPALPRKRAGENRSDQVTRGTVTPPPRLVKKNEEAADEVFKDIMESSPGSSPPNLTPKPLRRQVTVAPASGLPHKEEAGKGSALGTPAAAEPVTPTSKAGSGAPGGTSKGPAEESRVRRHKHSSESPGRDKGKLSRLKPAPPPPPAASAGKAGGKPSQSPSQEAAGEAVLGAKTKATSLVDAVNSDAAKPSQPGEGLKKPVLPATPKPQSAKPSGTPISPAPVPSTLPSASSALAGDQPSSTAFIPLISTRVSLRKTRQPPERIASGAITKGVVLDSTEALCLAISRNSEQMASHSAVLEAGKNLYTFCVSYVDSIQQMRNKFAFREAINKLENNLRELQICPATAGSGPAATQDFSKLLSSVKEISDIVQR
T8 sequence (Q6XUX3 whole entry): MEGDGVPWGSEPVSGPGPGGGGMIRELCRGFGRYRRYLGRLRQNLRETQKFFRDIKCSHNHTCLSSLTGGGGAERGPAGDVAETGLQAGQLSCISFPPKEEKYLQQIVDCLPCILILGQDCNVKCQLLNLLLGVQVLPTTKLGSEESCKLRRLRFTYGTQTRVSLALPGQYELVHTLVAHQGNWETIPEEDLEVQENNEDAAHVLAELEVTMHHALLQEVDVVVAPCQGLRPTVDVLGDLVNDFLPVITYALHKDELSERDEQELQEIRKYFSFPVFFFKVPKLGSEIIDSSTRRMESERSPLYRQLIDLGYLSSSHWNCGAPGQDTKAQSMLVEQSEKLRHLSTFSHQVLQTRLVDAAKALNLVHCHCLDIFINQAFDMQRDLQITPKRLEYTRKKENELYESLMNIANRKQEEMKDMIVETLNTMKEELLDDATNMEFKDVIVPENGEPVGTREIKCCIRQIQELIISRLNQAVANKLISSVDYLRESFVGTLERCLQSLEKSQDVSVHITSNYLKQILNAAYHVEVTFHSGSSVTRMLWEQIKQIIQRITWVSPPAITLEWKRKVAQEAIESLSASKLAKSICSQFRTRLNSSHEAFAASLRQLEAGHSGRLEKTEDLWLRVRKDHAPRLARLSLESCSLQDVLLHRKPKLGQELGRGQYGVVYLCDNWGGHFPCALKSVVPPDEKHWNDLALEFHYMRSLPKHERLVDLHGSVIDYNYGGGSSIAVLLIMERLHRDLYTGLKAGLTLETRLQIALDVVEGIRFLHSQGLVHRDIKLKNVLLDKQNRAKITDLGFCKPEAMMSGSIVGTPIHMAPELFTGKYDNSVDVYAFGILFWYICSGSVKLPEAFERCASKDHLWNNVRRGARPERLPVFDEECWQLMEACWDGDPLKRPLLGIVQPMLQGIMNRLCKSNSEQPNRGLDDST
T2 sequence (P32298 whole entry): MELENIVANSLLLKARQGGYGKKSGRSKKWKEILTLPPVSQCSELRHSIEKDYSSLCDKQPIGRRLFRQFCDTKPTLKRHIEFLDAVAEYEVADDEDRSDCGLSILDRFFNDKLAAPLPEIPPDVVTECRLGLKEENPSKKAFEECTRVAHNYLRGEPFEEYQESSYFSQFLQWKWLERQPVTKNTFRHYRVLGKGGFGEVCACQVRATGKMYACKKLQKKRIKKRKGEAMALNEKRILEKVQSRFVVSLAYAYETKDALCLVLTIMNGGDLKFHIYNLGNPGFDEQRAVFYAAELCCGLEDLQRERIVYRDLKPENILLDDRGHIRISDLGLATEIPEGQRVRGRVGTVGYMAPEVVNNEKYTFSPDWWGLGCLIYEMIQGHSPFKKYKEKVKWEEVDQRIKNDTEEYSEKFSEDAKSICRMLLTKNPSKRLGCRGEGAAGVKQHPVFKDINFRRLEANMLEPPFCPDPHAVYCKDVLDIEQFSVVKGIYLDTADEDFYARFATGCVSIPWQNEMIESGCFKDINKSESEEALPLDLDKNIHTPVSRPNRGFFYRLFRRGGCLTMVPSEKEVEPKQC

On to `COc1cc(-c2ccnn2C)ccc1Nc1nc(NC2CCCCC2)c2c(C#N)c[nH]c2n1` [Example 7, 4-(cyclohexylamino)-2-((2-methoxy-4-(1-methyl-1H-pyrazol-5-yl)phenyl)amino)-7H-pyrrolo[2,3-d] pyrimidine-5-carbonitrile], for which the GI50 with MDA-MB-231 cells is less than 100 nM. Further, the remaining binding at 1 µM amounted to 28% in assay [1], 29% at GRK4, 28% on MAPKAPK2 and 30% on SRPK3. The “% Cont @ 1 μM” value stood at 2% at JNK1, 13% at JNK2 and 4.3% on JNK3. Further, on LRRK2(G2019S), the percent of control (kinase binding) at 1 µM amounted to 2.7%. The percent of control binding at 1 µM at RIPK5 was 17%.
As to `COc1cc(N2CCCC2=O)ccc1Nc1cc(NC2CCCCC2)c2c(C#N)c[nH]c2n1` [Example 64, 4-(cyclohexylamino)-6-((2-methoxy-4-(2-oxopyrrolidin-1-yl)phenyl)amino)-1H-pyrrolo[2,3-b] pyridine-3-carbonitrile], in the assay with MDA-MB-231 cells, the 50% growth inhibitory concentration (GI50) is less than 100 nM. Besides, the remaining binding at 1 µM in assay [1] stood at 26%; on GRK4, 26%; on MAPKAPK2, 28%; at SRPK3, 28%. Besides, the “% Cont @ 1 μM” value at JNK1 turned out to be 0.9%; at JNK2 it was 4.1%; on JNK3 it was 1.7%. Further, the percent of control (kinase binding) at 1 µM on LRRK2(G2019S) stood at 17%. On RIPK5, the percent of control binding at 1 µM amounted to 30%.
